Key:
Colo201 cells = assay: Incucyte cell confluency, Colo201 cells; format: cell-based; conditions: Colo201 shIRE1 cells, titration
Protocol: For non-adherent AMO1, KMS27, and OPM2 cells, cells were plated at 5000 cells/well in ultra-low attachment (ULA) 96-well plates (Costar, #7007) and centrifuged at 600 × g for 5 min for spheroid formation. For adherent U2OS and Colo201 cells, 2000 cells/well were seeded in a clear flat-bottom 96-well plate (Costar, #3595). Treatments were added at the time of cell seeding, and cells were cultured in complete RPMI media to a final volume of 200 µL/well. Cultures were maintained at 37 °C throughout the duration of the experiment. Cell confluency was tracked using the Incucyte live-cell imaging system (Sartorius S3). Picture frames were captured every 4 h with a 4× objective, and cell confluency (%) from the total well area as a function of time was calculated using the Incucyte software (version 2023 A Rev2).

[1] = tested on: IRE1 L577D, V586D, A597D, L644D, L695D, E651A; assay: NanoBRET with IRE1 point mutants disrupting IRE1:G6374 interactions; format: cell-based; conditions: each of L577D, HEK293T
Protocol: (§1) 8 × 10^5 293T cells per well were seeded in 6-well plates (Costar, #3516) and incubated at 37 °C, 5% CO2 for 6 h. A mixture of 0.2 µg ERN1 (IRE1)-NanoLuc Fusion Vector (Promega, NV1321), 2 µg HaloTag-VHL Fusion Vector (Promega, N2731), 6 µl FuGENE HD Transfection Reagent (Promega, E2311), and 100 µL Opti-MEM I reduced serum medium (Gibco, #31985062) per well was incubated at room temperature for 20 min before adding to cells. For expression of IRE1 mutants, site-directed mutagenesis was performed using the ERN1-NanoLuc Fusion Vector as the DNA template, and the transfection mixture was prepared in the same way as WT IRE1. After 18 h, cells from 6-well plates were trypsinized, resuspended in Opti-MEM I reduced serum medium, and reseeded into 96-well plates (Costar, #3917), with or without the addition of HaloTag NanoBRET 618 Ligand (Promega, G9801). After 18 h of incubation, a titration of G6374 (dilutions made in Opti-MEM I reduced serum medium) was added to the cells. After 2 h of G6374 treatment, NanoBRET Nano-Glo Substrate (Promega, N1571) was added to cells. The 96-well plates were imaged by GloMax Discover Microplate Reader (Promega, GM3000) with the default “BRET: NanoBRET 618” protocol (Donor: 450 BP; Acceptor: 600 LP; Integration: 0.3 s). Data analysis was performed according to the user manual.

IRE1 E621A, E836A:VHL = target: T1, IRE1 E621A, E836A:VHL (Homo sapiens, UniProt O75460+P40337, E621A/E836A); assay: NanoBRET IRE1:VHL interaction, IRE1 E621A, E836A, HEK293T cells; format: cell-based
T1 construct: N2731; host or cells: HEK293T
Protocol: as §1

VCB (VHL:EloC:EloB) = VCB (VHL:EloC:EloB) (Homo sapiens, UniProt P40337); assay: Surface plasmon resonance, binary interaction with VCB; format: binding; conditions: SPR, immobilised VCB, 20 °C, 1 to 1 kinetic model
Protocol: All SPR experiments in this paper were recorded on a Biacore S200 instrument; all protein captures and data collection were at 20 °C.
For binary interactions with G6374: a Xantec SAHC 200 M (streptavidin) chip was inserted into the instrument and primed into running buffer [50 mM HEPES (pH 7.4), 150 mM NaCl, 0.001% Tween 20, 0.2% PEG3350, 0.25 mM TCEP, and 2% DMSO]. Biotinylated human IRE1.KR protein was captured on FC2 to 2-4000 RU, biotinylated VHL in complex with Elongin B (VHL/EloB) was captured on FC4 to 1-2000 RU, data were collected, and all referenced to FC1. Affinity for G6374 was measured using a titration series, injected from low to high with an 8-point, 2-fold dilution dose response with a top concentration of 0.5 μM in both single cycle (single cycle kinetics (SCK)) and multi cycle kinetics (MCK) formats. For MCK experiments, an association time of 45 s and a dissociation time of 200 s with a flow rate of 50 μL/min. For SCK experiments, an association time of 45 s and a dissociation time of 2000 s with a flow rate of 50 μL/min were used. All data were analyzed using Insight software (Cytiva) using a 1 to 1 kinetic binding model.

IRE1:VHL = IRE1:VHL (Homo sapiens, UniProt O75460+P40337); assay: co-IP of endogenous VHL with endogenous IRE1 from AMO1 cells; format: cell-based; set-up: co-IP of endogenous VHL with endogenous IRE1 from AMO1 cells; endogenous in cells; host or cells: AMO1; conditions: titration of G6374
Protocol: Cells were lysed in buffer containing 20 mM HEPES 7.2, 150 mM NaCl, and 1% Triton X-100, supplemented with fresh protease and phosphatase inhibitors (Invitrogen, #78440), cleared by centrifugation at 12,000 × g for 10 min, and analyzed by BCA protein assay (Thermo Fisher Scientific, #23227). Equal protein amounts were loaded, separated by SDS-PAGE, electrotransferred to nitrocellulose membranes using the iBLOT2 system (Invitrogen), and blocked in 5% nonfat milk solution for 60 min. Membranes were probed with primary antibodies at 1:1000 dilution in 5% milk at 4 °C overnight. Signal was detected using appropriate horseradish peroxidase (HRP)-conjugated secondary antibodies at 1:10,000 in 5% milk at room temperature for 1–2 h. Bands were visualized by the Azure 600 western blot imaging system (Azure Biosystems). For in vitro ubiquitination assays performed with Me-Ub, bands were visualized by the Odyssey CLx Imager (LI‑COR) after incubating the blots with the IRDye 800CW (LI-COR) secondary antibodies at 1:10,000 in Intercept Blocking Buffer (LI-COR) at room temperature for 1–2 h.
IRE1.LD antibodies were conjugated to agarose beads using the AminoLink® Plus Immobilization Kit (Thermo Fisher, #44894). […]

VCB (VHL:EloC:EloB), sequence (P40337 whole entry): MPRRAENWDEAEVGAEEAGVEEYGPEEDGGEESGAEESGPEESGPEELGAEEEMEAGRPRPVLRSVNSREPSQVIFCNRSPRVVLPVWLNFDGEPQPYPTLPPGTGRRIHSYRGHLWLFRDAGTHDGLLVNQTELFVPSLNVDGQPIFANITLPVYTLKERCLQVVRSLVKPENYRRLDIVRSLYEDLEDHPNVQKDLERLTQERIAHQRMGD
VCB (VHL:EloC:EloB), sequence (Q15370 whole entry partner): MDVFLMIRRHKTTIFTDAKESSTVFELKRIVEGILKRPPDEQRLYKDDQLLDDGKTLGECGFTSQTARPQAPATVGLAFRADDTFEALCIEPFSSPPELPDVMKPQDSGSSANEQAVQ
VCB (VHL:EloC:EloB), sequence (Q15369 whole entry partner): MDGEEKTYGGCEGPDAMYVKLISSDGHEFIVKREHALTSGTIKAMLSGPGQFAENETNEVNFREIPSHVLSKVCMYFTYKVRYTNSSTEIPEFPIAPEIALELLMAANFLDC
IRE1:VHL, sequence (O75460 19-977): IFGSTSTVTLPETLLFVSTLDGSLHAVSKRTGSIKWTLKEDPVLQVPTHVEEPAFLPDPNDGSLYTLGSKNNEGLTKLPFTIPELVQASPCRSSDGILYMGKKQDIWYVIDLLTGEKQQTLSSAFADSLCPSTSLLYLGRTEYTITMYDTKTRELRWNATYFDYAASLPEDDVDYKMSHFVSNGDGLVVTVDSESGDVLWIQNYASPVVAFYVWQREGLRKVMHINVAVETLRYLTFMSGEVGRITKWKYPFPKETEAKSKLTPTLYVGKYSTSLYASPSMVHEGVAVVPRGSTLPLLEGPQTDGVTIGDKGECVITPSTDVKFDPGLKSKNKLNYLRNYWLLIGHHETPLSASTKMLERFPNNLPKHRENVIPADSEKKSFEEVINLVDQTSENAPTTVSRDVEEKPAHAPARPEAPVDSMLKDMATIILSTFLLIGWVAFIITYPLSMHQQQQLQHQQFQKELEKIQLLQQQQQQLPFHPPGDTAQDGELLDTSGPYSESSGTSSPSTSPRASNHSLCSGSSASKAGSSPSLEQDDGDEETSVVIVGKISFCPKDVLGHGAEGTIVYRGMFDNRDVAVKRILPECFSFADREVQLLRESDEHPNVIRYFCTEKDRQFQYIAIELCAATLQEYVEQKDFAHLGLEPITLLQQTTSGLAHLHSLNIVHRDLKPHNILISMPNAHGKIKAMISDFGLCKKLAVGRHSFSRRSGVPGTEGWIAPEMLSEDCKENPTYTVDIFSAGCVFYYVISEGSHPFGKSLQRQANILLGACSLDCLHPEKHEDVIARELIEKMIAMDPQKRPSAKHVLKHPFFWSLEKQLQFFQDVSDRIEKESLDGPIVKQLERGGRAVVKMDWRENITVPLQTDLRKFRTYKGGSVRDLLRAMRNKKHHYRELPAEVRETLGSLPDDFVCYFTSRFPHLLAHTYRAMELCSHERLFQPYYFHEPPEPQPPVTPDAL
IRE1:VHL, sequence (P40337 whole entry): as the sequence (P40337 whole entry) above
IRE1:VHL, sequence (Q15369 whole entry partner): as the sequence (Q15369 whole entry partner) above
IRE1:VHL, sequence (Q15370 whole entry partner): as the sequence (Q15370 whole entry partner) above
IRE1:VHL, sequence (Q13617 whole entry partner): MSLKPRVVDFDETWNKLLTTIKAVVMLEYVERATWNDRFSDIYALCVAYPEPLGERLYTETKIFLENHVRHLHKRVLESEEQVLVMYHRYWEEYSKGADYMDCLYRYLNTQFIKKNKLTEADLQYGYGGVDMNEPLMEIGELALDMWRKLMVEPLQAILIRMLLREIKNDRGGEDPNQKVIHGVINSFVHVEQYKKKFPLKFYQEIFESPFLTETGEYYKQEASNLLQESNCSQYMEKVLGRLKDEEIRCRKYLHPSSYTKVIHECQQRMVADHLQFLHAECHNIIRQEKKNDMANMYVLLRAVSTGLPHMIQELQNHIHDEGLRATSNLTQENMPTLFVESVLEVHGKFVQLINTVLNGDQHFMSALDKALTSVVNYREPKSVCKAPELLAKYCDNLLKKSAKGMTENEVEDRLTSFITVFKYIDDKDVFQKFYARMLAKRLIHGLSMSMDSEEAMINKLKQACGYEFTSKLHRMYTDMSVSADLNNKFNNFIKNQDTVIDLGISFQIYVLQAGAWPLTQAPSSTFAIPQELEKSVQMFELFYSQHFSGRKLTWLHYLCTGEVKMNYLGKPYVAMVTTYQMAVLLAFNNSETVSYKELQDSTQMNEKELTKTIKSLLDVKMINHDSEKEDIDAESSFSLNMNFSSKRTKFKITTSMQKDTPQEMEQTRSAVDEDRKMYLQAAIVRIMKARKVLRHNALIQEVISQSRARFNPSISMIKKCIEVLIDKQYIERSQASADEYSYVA
IRE1:VHL, sequence (P62877 whole entry partner): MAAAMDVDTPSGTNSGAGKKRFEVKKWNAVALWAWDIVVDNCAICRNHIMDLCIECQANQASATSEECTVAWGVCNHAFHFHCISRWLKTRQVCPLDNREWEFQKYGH
T1 sequence (P62877 whole entry): as the sequence (P62877 whole entry partner) above
T1 sequence (Q15370 whole entry, further chain): as the sequence (Q15370 whole entry partner) above
T1 sequence (Q15369 whole entry, further chain): as the sequence (Q15369 whole entry partner) above
T1 sequence (Q13617 whole entry, further chain): as the sequence (Q13617 whole entry partner) above
T1 sequence (P40337 whole entry): as the sequence (P40337 whole entry) above
T1 sequence (O75460 19-977 E621A/E836A): as the sequence (O75460 19-977) above, with E603A, E818A counted along it

In the case of `Cc1ncsc1-c1ccc(CNC(=O)[C@@H]2C[C@@H](O)CN2C(=O)[C@@H](NC(=O)CCCCN2CCN([C@H]3CC[C@H](Nc4ncc5ccc(=O)n(C(C)C)c5n4)CC3)CC2)C(C)(C)C)cc1` [G6374], the “proliferation rate (cell confluency)” value (Colo201 cells) is reported as “did not affect the proliferation rate”, the “G6374-induced IRE1:VHL interaction and IRE1 degradation with IRE1 point mutants” value [1] is reported as “abolish the G6374-induced interaction between IRE1 and VHL” and the EC50 (IRE1 E621A, E836A:VHL) is reported as 50 ± 20 nM. It also gave a Kd (VCB (VHL:EloC:EloB)) of 90.2 nM, a kd (VCB (VHL:EloC:EloB)) of 0.0477 s⁻¹ and a kon (VCB (VHL:EloC:EloB); read-out: ka) of 514000 M⁻¹ s⁻¹. For the same molecule, the “induced IRE1:VHL interaction (co-IP)” value (IRE1:VHL) was “induced a much stronger interaction between the two proteins”.

From paper PMC12749748, “Chemically-induced degradation of the endoplasmic-reticulum stress sensor IRE1 by a VHL-recruiting chimera” (Nature Communications, 2025)
